What was measured:
[1] = test system: MDA-MB-231 cells; test: MTT antiproliferative assay, MDA-MB-231; assay type: cell-based, human; conditions: Homo sapiens, MDA-MB-231, 72 h; for inhibition at 10 µM / inhibition at 30 µM: read-out: Growth inhibition, % ± SEM; for IC50: read-out: calculated IC50 value
Method: (§1) The antiproliferative properties of the newly synthesized compounds (9–20) and their starting materials (4 and 5) were determined on a panel of human adherent cancer cell lines. MCF-7, MDA-MB-231 and T47D were isolated from breast cancers differing in biochemical background, while A2780 cells were isolated from ovarian cancer. HeLa and SiHa are cervical cancer cell lines positive for HPV-18 and HPV-16, respectively, while C33-A cervical cancer cells are negative for HPV. Moreover, two oropharyngeal cancer cell lines were also utilized: the HPV-negative UPCI-SCC-131 and HPV-16 positive UPCI-SCC-154. The cancer selectivity of compounds was tested on the non-cancerous mouse embryo fibroblast cell line NIH/3T3. All cell lines were purchased from European Collection of Cell Cultures (ECCAC, Salisbury, UK) exception for SiHa and C33-A (American Tissue Culture Collection, Manassas, VA, USA) and HN-SCC-131 and UPCI-SCC-154 (German Collection of Microorganisms and Cell Cultures GmbH, Braunschweig, Germany). Cells were cultivated in minimal essential medium supplemented with 10% fetal bovine serum, 1% non-essential amino acids and an antibiotic–antimycotic mixture. The medium of oropharyngeal cancer cells additionally contained 2.0 mM L-glutamine. All media and supplements were obtained from Lonza Group Ltd., Basel, Switzerland. Near-confluent cancer cells were seeded onto a 96-well microplate at a density of 5,000 cells/well, except for C33-A which were seeded at 10,000/well. After overnight standing, new medium containing the tested compounds at 10 and 30 µM final concentration was added. After incubation for 72 h at 37 °C in humidified air containing 5% CO2, the living cells were assayed by the addition of 20 μL of 5 mg/ml 3-(4,5-dimethylthiazol-2-yl)-2,5-diphenyltetrazolium bromide (MTT) solution. MTT was converted by intact mitochondrial reductase and precipitated as purple crystals during a 4-h contact period. The medium was next removed and the precipitated formazan crystals were dissolved in 100 μL of DMSO during a 60-min period of shaking at 37 ^оC.
(§2) All in vitro experiments were carried out twice with five parallels. Stock solutions of the tested substances (10 mM) were prepared in DMSO. […] Cisplatin (Ebewe Pharma GmbH, Unterach, Austria) was used as positive control.

[2] = test system: non-cancerous mouse embryo fibroblast (NIH/3T3) cells; test: MTT assay on non-cancerous fibroblasts (tumour selectivity); assay type: cell-based; conditions: for inhibition at 10 µM / inhibition at 30 µM / IC50: Mus musculus, NIH3T3, 72 h; for inhibition at 10 µM / inhibition at 30 µM: read-out: Growth inhibition, % ± SEM; for IC50: read-out: calculated IC50 value
Method: as §1, §2

[3] = test system: MCF-7 cells; test: MTT antiproliferative assay, MCF-7; assay type: cell-based, human; conditions: Homo sapiens, MCF7, 72 h; for inhibition at 10 µM / inhibition at 30 µM: read-out: Growth inhibition, % ± SEM, 72 h; for inhibition at 10 µM: MCF-7, 10 μM; for inhibition at 30 µM: MCF-7, 30 μM; for IC50: read-out: calculated IC50 value
Method: as §1, §2

[4] = test system: UPCI-SCC-154 cells; test: MTT antiproliferative assay, UPCI-SCC-154; assay type: cell-based, human; conditions: Homo sapiens, 72 h, 72 h; for inhibition at 10 µM / inhibition at 30 µM: read-out: Growth inhibition, % ± SEM; for inhibition at 10 µM: UPCI-SCC-154, 10 μM; for inhibition at 30 µM: UPCI-SCC-154, 30 μM; for IC50: read-out: calculated IC50 value
Method: as §1, §2

[5] = test system: A2780 cells; test: MTT antiproliferative assay, A2780; assay type: cell-based, human; conditions: Homo sapiens, A2780, 72 h; for inhibition at 10 µM / inhibition at 30 µM: read-out: Growth inhibition, % ± SEM, 72 h; for inhibition at 10 µM: A2780, 10 μM; for inhibition at 30 µM: A2780, 30 μM; for IC50: read-out: calculated IC50 value
Method: as §1, §2

[6] = test system: UPCI-SCC-131 cells; test: MTT antiproliferative assay, UPCI-SCC-131; assay type: cell-based, human; conditions: Homo sapiens, 72 h, 72 h; for inhibition at 10 µM / inhibition at 30 µM: read-out: Growth inhibition, % ± SEM; for inhibition at 10 µM: UPCI-SCC-131, 10 μM; for inhibition at 30 µM: UPCI-SCC-131, 30 μM; for IC50: read-out: calculated IC50 value
Method: as §1, §2

[7] = test system: T47D cells; test: MTT antiproliferative assay, T47D; assay type: cell-based, human; conditions: Homo sapiens, 72 h; for inhibition at 10 µM: read-out: Growth inhibition, % ± SEM, 10 μM; for inhibition at 30 µM: read-out: Growth inhibition, % ± SEM, 30 μM; for IC50: read-out: calculated IC50 value
Method: as §1, §2

[8] = test system: SiHa cells; test: MTT antiproliferative assay, SiHa; assay type: cell-based, human; conditions: Homo sapiens, 72 h; for inhibition at 10 µM: read-out: Growth inhibition, % ± SEM, 10 μM; for inhibition at 30 µM: read-out: Growth inhibition, % ± SEM, 30 μM; for IC50: read-out: calculated IC50 value
Method: as §1, §2

[9] = test system: HeLa cells; test: MTT antiproliferative assay, HeLa; assay type: cell-based, human; conditions: Homo sapiens, 72 h; for inhibition at 10 µM: read-out: Growth inhibition, % ± SEM, 10 μM; for inhibition at 30 µM: read-out: Growth inhibition, % ± SEM, 30 μM; for IC50: read-out: calculated IC50 value
Method: as §1, §2

[10] = test system: C33-A cells; test: MTT antiproliferative assay, C33-A; assay type: cell-based, human; conditions: Homo sapiens, C-33-A, 72 h; for inhibition at 10 µM: read-out: Growth inhibition, % ± SEM, C33-A, 10 μM; for inhibition at 30 µM: read-out: Growth inhibition, % ± SEM, C33-A, 30 μM; for IC50: read-out: calculated IC50 value
Method: as §1, §2

[11] = test system: panel of human adherent cancer cell lines; test: MTT antiproliferative assay, whole panel of cell lines; assay type: cell-based; conditions: read-out: IC50 (span over the panel)
Method: as §1, with “^оC. […]” for “^оC.”

[12] = test system: certain cancer cell lines; set-up: method as in PMID 25845933; conditions: cited from earlier work

Row | Compound | inhibition at 10 µM [1] [%] | inhibition at 30 µM [1] [%] | IC50 [1] [µM] | inhibition at 10 µM [2] [%] | inhibition at 30 µM [2] [%] | IC50 [2] [µM] | inhibition at 10 µM [3] [%] | inhibition at 30 µM [3] [%] | IC50 [3] [µM] | inhibition at 10 µM [4] [%] | inhibition at 30 µM [4] [%] | IC50 [4] [µM] | inhibition at 10 µM [5] [%] | inhibition at 30 µM [5] [%] | IC50 [5] [µM] | inhibition at 10 µM [6] [%] | inhibition at 30 µM [6] [%] | IC50 [6] [µM] | inhibition at 10 µM [7] [%] | inhibition at 30 µM [7] [%] | also measured
1 | COc1ccc2c(c1)CC[C@@H]1[C@@H]2CC[C@@]2(C)C(=O)[C@H](CP(=O)(c3ccccc3)c3ccccc3)C[C@@H]12 [Compound 9, [(3-methoxy-17-oxo-13α-oestra-1,3,5(10)-trien-16α-yl)methyl]diphenylphosphine oxide] | < 20 | 99.03 ± 0.73 | 23.5 | < 20 | 96.55 ± 0.86 | 20.4 | 21.3 ± 2.79 | 93.1 ± 1.6 | 13.7 | < 20 | 99.8 ± 1.48 | 13.5 | 47.2 ± 2.75 | 98.99 ± 0.41 | 11.7 | 63.4 ± 1.41 | 99.35 ± 0.27 | 5.3 | 57.5 ± 3.15 | 93.77 ± 0.55 | Tumour selectivity: IC50 on NIH/3T3 relative to IC50 on UPCI-SCC-131 ([2]; NIH/3T3 vs UPCI-SCC-131): four times higher; IC50 [7]: 7.2 µM; inhibition at 10 µM [8]: < 20%; inhibition at 30 µM [8]: 96.5 ± 1.24%; IC50 [8]: 13.8 µM; inhibition at 10 µM [9]: < 20%; inhibition at 30 µM [9]: 97.59 ± 0.73%; IC50 [9]: 12.9 µM; inhibition at 10 µM [10]: < 20%; inhibition at 30 µM [10]: 97.85 ± 0.32%; IC50 [10]: 13.3 µM
2 | C[C@@]12CC[C@@H]3c4ccc(OCc5ccccc5)cc4CC[C@H]3[C@@H]1C[C@H](CP(=O)(c1ccccc1)c1ccccc1)C2=O [Compound 12, [(3-benzyloxy-17-oxo-13α-oestra-1,3,5(10)-trien-16β-yl)methyl]diphenylphosphine oxide] | < 20 | 84 ± 2.61 | 24.5 | < 20 | 48.3 ± 1.65 | 30.9 | < 20 | 90.2 ± 1.61 | 16.4 | < 20 | 75.5 ± 1.84 | 29.8 | < 20 | 97.14 ± 0.55 | 28.5 | 49.4 ± 2.06 | 90 ± 1.15 | 14.2 | 31.4 ± 1.55 | 75 ± 1.65 | IC50 [11]: 13.6 to 29.8 µM; IC50 [7]: 17 µM; inhibition at 10 µM [8]: < 20%; inhibition at 30 µM [8]: 94.8 ± 1.48%; IC50 [8]: 14.1 µM; inhibition at 10 µM [9]: < 20%; inhibition at 30 µM [9]: 96.4 ± 1.88%; IC50 [9]: 13.6 µM; inhibition at 10 µM [10]: < 20%; inhibition at 30 µM [10]: 97.68 ± 0.85%; IC50 [10]: 13.6 µM
3 | COc1ccc2c(c1)CC[C@@H]1[C@@H]2CC[C@@]2(C)C(=O)[C@H](CP(=O)(c3ccc(C)cc3)c3ccc(C)cc3)C[C@@H]12 [Compound 13, [(3-methoxy-17-oxo-13α-oestra-1,3,5(10)-trien-16α-yl)methyl]di-p-tolylphosphine oxide] | < 20 | 95.56 ± 0.67 | 25.8 | < 20 | 89.76 ± 0.49 | 19.3 | < 20 | 84.9 ± 2.54 | 14.8 | < 20 | 75.9 ± 1.93 | 21.5 | < 20 | 97.77 ± 0.35 | 23.8 | 29.9 ± 1.21 | 97.02 ± 0.43 | 12.3 | 26.7 ± 1.95 | 89.82 ± 0.68 | IC50 [11]: 10 to 25 µM; IC50 [7]: 13.6 µM; inhibition at 10 µM [8]: < 20%; inhibition at 30 µM [8]: 92.9 ± 0.85%; IC50 [8]: 13.7 µM; inhibition at 10 µM [9]: < 20%; inhibition at 30 µM [9]: 95.69 ± 0.69%; IC50 [9]: 14.3 µM; inhibition at 10 µM [10]: < 20%; inhibition at 30 µM [10]: 96.31 ± 0.46%; IC50 [10]: 14.5 µM
4 | COc1ccc2c(c1)CC[C@@H]1[C@@H]2CC[C@@]2(C)C(=O)[C@@H](CP(=O)(c3ccc(C)cc3)c3ccc(C)cc3)C[C@@H]12 [Compound 14, [(3-methoxy-17-oxo-13α-oestra-1,3,5(10)-trien-16β-yl)methyl]di-p-tolylphosphine oxide] | < 20 | 98.22 ± 0.39 | 17.6 | < 20 | 52.7 ± 2.87 | 29.6 | < 20 | 90 ± 2.88 | 14.4 | < 20 | 87 ± 1.16 | 11.4 | < 20 | 100.3 ± 0.22 | 21.5 | 48.8 ± 1.5 | 97.3 ± 1.38 | 10.9 | 22.6 ± 1.33 | 86 ± 1.51 | IC50 [11]: 10 to 25 µM; IC50 [7]: 13.8 µM; inhibition at 10 µM [8]: < 20%; inhibition at 30 µM [8]: 93 ± 1.37%; IC50 [8]: 11.8 µM; inhibition at 10 µM [9]: < 20%; inhibition at 30 µM [9]: 99.14 ± 0.37%; IC50 [9]: 12.2 µM; inhibition at 10 µM [10]: 26.9 ± 2.13%; inhibition at 30 µM [10]: 101.1 ± 0.24%; IC50 [10]: 10.9 µM
5 | CCc1ccc(-c2cn([C@H]3C[C@H]4[C@@H]5CCc6cc(OCc7ccccc7)ccc6[C@H]5CC[C@@]4(C)[C@@H]3O)nn2)cc1 [Compound 28] | – | – | – | – | – | – | – | – | – | – | – | – | – | – | – | – | – | – | – | – | IC50 [12]: low micromolar range

From article PMC8405091, “Microwave-assisted Phospha-Michael addition reactions in the 13α-oestrone series and in vitro antiproliferative properties” (Journal of Enzyme Inhibition and Medicinal Chemistry, 2021)
